From patent publication US20110100079A1, “METHOD FOR IMPARTING STRESS TOLERANCE TO PLANT” (priority 2007, published 2011)

Tests used:
Type in all cases: in vivo
“Momotaro” tomato [1] = assay: Example 2 temperature stress tolerance imparting test (tomato); conditions: 32° C., leaf, 100 ppm, 2 weeks
Procedure: Other cultivation conditions were the same as the conditions of the temperature stress test. […] (2) Solution culture medium: […] Method of Temperature Stress Tolerance Imparting Test The temperature in a climatic chamber was controlled so as to be 10, 15, or 32° C. The environmental conditions were controlled so as to have an illuminance by a fluorescent light of 5000 Lux and a daily light-dark cycle of a 16-hour light period and a 8-hour dark period. In this test, a temperature of 23° C. at which the optimum growth was observed was regarded as a reference temperature (temperature stress-free test condition), and a stress was imposed by applying a temperature higher or lower than the reference temperature. A tomato as prepared above was planted in a 250 ml polyethylene bottle filled with the solution culture medium (½ Otsuka A formulation). A treatment solution as presented in Table 1 was sprayed onto the leaves or applied to the underground portion. […] Ten specimens were prepared for each of the test plot and the control plots, and a plant stress level and an extent of imparting plant stress tolerance were calculated according to Formula (ii) and (iii) above using as a fresh plant body weight the average of the fresh plant body weights of each specimen 2 weeks after the beginning of the test.

[2] = system: Potato Variety: Toyoshiro; assay: Example 5 drying stress tolerance imparting test (potato variety Toyoshiro); conditions: pF 2.3, leaf, 100 ppm once a week, 3 weeks
Procedure: Other cultivation conditions were the same as the conditions of the drying stress test. Drying stress conditions: soil pF value: 2.3, 2.5, or 2.9, cultivation temperature: 23° C., relative humidity: 50%, illuminance: 5000 Lux (fluorescent light), light/dark cycle: 16 hours/8 hours (2) Cultivation Period: 3 weeks (3) Soil: Kureha gardening soil manufactured by Kureha Corporation (fertilizer components: N:P:K=0.4:1.9:0.6 g/kg soil) (4) The chemicals used and the amount of a treatment solution applied were the same as in Example 3. Method of Drying Stress Tolerance Imparting Test A planter (60 cm) was filled with Kureha gardening soil manufactured by Kureha Corporation (fertilizer components: N:P:K=0.4:1.9:0.6 g/kg soil) in a glass greenhouse, tubers of a “Thyoshiro” potato were cut in half: and 5 pieces thereof were planted in the planter, thinly covered with Kureha gardening soil, and sufficiently watered to allow the tubers to sprout. When the leaves in the 3-leaf stage fully unfolded, the Solarium tuberosu was relocated on a plant culture rack in an air-conditioned room, and a test was initiated. […] From immediately after the beginning of the test, a treatment solution of Table 1 was sprayed onto the leaves or applied to the underground portions once a week. […] Five specimens (per planter) were prepared for each of the test plot and the control plots, plant bodies were collected 3 weeks after the beginning of the test such that the roots were not cut, the soil was washed away with running water, the fresh plant body weights were measured, and a plant stress level and an extent of imparting plant stress tolerance were calculated according to Formula (ii) and (iii) above using the average of the weights.

“Momotaro” tomato [3] = assay: Example 4 salt stress tolerance imparting test (tomato, tap water + NaCl); conditions: tap water + NaCl 3510 ppm, leaf, 100 ppm, 2 weeks
Text: NaCl concentration 3510 ppm (water potential by NaCl: […]) (4) Cultivation period: two weeks (5) Plant preparation: A 50-cell tray was filled with Kureha gardening soil manufactured by Kureha Corporation (fertilizer components: N:P:K=0.4:1.9:0.6 g/kg soil), and seeds of a “Momotaro” tomato were sowed, thinly covered with Kureha gardening soil, and sufficiently irrigated to allow the seeds to sprout. When the leaves in the 2-leaf stage fully unfolded, the soil on the tomato roots was carefully washed away with running water, and a test was performed. (6) The chemicals used and the concentration of a treatment solution were as in Example 1 (7) Amount of application: 10 ml/specimen for leaf spraying, 50 ml/specimen for fertigation Method of Salt Stress Tolerance Imparting Test […]

“Momotaro” tomato [4] = assay: Standard test: standard extent of imparting plant salt stress tolerance; conditions: 100 ppm sprayed onto leaves 10 ml/specimen, NaCl 3510 ppm in tap water, fresh weight after 2 weeks vs salt-stressed untreated control plot 1
Procedure: Standard Test (I) Plant Preparation A 50-cell tray is filled with potting soil (fertilizer components: N:P:K=0.4:1.9:0.6 (g)/kg potting soil); and seeds of a “Momotaro” tomato (Takii Co., Ltd.) are sowed, thinly covered with potting soil, and sufficiently irrigated to allow the seeds to sprout. When the leaves in the 2-leaf stage are fully unfolded, the soil on the tomato roots is washed away with running water, and a test is performed. For the potting soil, Kureha gardening soil manufactured by Kureha Corporation may be used. (II) Test Condition Setting The environmental conditions are controlled such that the temperature is 23° C., the relative humidity is 50%, the illuminance is 5000 Lux, and the daily light-dark cycle includes a 16-hour light period and an 8-hour dark period. Such environmental conditions can be obtained by, for example, controlling the temperature in a room or a climate chamber where the temperature and the relative humidity can be controlled, and controlling illuminance by a fluorescent light or the like. […] (III) Treatment with Plant Stress Tolerance Imparting Composition […] A known surfactant or a like material that barely affects the plant may be used in the preparation of an aqueous dispersion. Test plot: An aqueous solution or an aqueous dispersion of a test compound (sugar derivative-type surfactant) (concentration: 100 ppm) is sprayed onto the leaves in an amount of 10 ml per tomato specimen. […] NaCl is added to a solution culture medium (creating a salt stress), but no test compound (plant stress tolerance imparting composition) is given to the tomato. Control plot 2: No NaCl is added to a solution culture medium (creating no salt stress), and no test compound (plant stress tolerance imparting composition) is given to the tomato. (IV) Calculation of Standard Extent of Imparting Plant Salt Stress Tolerance (%) […] The plant stress level (standard plant salt stress level) attained in the above-described standard test is about 130%. In this regard, the standard plant salt stress level can be calculated according to Formula (ii)′ below.

“Momotaro” tomato [5] = assay: Example 3 drying stress tolerance imparting test (tomato); conditions: pF 2.3, leaf, 100 ppm once a week, 3 weeks
Procedure: Other cultivation conditions were as with the conditions of the drying stress test. Drying stress conditions: soil pF value: 2.3, 2.5, or 2.9, cultivation temperature: 23° C., relative humidity: 50%, illuminance: 5000 Lux (fluorescent light), light/dark cycle: 16 hours/8 hours (2) Cultivation period: 3 weeks (3) Soil: Kureha gardening soil manufactured by Kureha Corporation (fertilizer components: N:P:K=0.4:1.9:0.6 g/kg soil) (4) Plant preparation: A 50-cell tray was filled with Kureha gardening soil manufactured by Kureha Corporation (fertilizer components: N:P:K=0.4:1.9:0.6 g/kg soil), and seeds of a “Momotaro” tomato were sowed, thinly covered with Kureha gardening soil, and sufficiently watered to allow the seeds to sprout. When the leaves in the 2-leaf stage fully unfolded, the soil on the tomato roots was carefully washed away with running water, and a test was performed. (5) The chemicals used and the amount of a treatment solution applied were as in Example 1. (6) Amount of treatment solution applied: 10 ml/specimen for leaf spraying, 50 ml/specimen for fertigation Method of Drying Stress Tolerance Imparting Test Five tomato specimens as prepared above were planted in a 60-cm planter placed on a plant culture rack in an air-conditioned room. […] From immediately after planting the tomatoes, a treatment solution of Table 1 was sprayed onto the leaves or applied to the underground portions once a week. […] Five specimens (per planter) were prepared for each of the test plot and the control plots, plant bodies were collected 3 weeks after the beginning of the test such that the roots were not cut, the soil was washed away with running water, the fresh plant body-weights were measured, and a plant stress level and an extent of imparting plant stress tolerance were calculated according to Formula (ii) and (iii) above using the average of the weights.

Sucrose fatty acid ester (C18, HLB = 5) [Product of present invention 17]
Extent of imparting plant stress tolerance (“Momotaro” tomato [1]): 111%
Extent of imparting plant stress tolerance [2]: 114%
Extent of imparting plant stress tolerance (“Momotaro” tomato [3]): 113%
Standard extent of imparting plant salt stress tolerance (“Momotaro” tomato [4]): 113%
Extent of imparting plant stress tolerance (“Momotaro” tomato [5]): 112%
